Measured values published in paper PMC7522858, “The Synthetic Myeloperoxidase Inhibitor AZD3241 Ameliorates Dextran Sodium Sulfate Stimulated Experimental Colitis” (Frontiers in Pharmacology, 2020).

Biological target: T1, myeloperoxidase (MPO) (Homo sapiens, UniProt P05164)
T1 construct: isolated human MPO
Experiment: luminol luminescence assay of isolated human MPO with H2O2 and NaCl
Assay type: biochemical

T1 sequence (P05164 165-273): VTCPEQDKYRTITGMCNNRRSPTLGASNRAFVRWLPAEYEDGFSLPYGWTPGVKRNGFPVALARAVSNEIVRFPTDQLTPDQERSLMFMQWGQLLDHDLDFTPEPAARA
T1 sequence (P05164 279-745): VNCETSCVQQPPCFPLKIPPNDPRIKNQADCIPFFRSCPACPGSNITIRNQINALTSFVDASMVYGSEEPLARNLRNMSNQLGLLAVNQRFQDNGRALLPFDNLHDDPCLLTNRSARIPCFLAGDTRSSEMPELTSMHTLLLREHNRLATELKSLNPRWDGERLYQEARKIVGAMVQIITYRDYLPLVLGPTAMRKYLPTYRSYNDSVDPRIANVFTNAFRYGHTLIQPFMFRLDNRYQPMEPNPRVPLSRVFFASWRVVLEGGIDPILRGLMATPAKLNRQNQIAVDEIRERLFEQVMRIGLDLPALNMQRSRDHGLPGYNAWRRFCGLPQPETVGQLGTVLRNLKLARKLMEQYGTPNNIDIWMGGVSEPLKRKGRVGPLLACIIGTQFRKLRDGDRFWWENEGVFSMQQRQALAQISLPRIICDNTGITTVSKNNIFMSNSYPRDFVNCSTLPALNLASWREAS

- IC50: ~1.2 µM
SMILES: CC(C)OCCn1c(=S)[nH]c(=O)c2[nH]ccc21 [AZD3241]
